Residues, ends and D or L forms follow the SMILES beside them.
Key:
MDA-MB231 cells [1] = test: Transwell cell migration and invasion assays, MDA-MB231; type: cell-based, human; conditions: peptide 20 µM, HGF 25 ng/mL, 24 h
Procedure: Transwell chambers (24-wells) with 8 μm pores were obtained from Corning (Corning, NY). MDA-MB231 and 4T1 cells (1 × 10^6 cells) were harvested, resuspended in 200 μL of DMEM containing CD44v6-binding peptides (20 µM), and then seeded into the upper chamber of the transwell chambers. The lower chamber was filled with 600 μL of DMEM containing 25 ng/mL HGF. After 24 h of incubation, cells that migrated into the reverse side of the transwell membrane were fixed with methanol, stained with crystal violet, and then counted under a light microscope. An average of five visual fields was obtained. For invasion assays, the transwell membrane was pre-coated with 300 µg/mL of Matrigel (Corning).

[2] = system: CD44v6-knockdown MDA-MB231 cells; test: Peptide binding to CD44v6-knockdown cells (flow cytometry); type: cell-based, human; conditions: FITC-labeled peptide 25 µM, MDA-MB231, siRNA knockdown 24 h
Procedure: Cells (1 × 10^5 cells) were harvested and suspended in culture medium containing 1% BSA for 1 h, followed by an incubation with FITC-labeled peptides (25 µM) at 4 °C for 1 h. After washing, the cells were analyzed using a FACSCalibur flow cytometer (BD, Franklin Lakes, NJ). For competition assays, cells were incubated with 5 µg/mL of an anti-human CD44v6 mouse monoclonal antibody (clone no. VFF-18, 1:100 dilution; Abcam, Cambridge, MA) and anti-human CD44 monoclonal antibody (clone no. 156-3C11, 1:100 dilution; ThermoFisher Scientific) for 1 h to compete with peptide binding, followed by an incubation with FITC-labeled peptides (10 µM) before analysis on a flow cytometer (BD). In another set of assays, cells were incubated with peptides (50 µM) for 1 h to compete with antibody binding, followed by an incubation with 5 µg/mL of the anti-human CD44v6 mouse monoclonal antibody for 1 h, The cells were then incubated with an Alexa Fluor 488-labeled goat anti-mouse IgG secondary antibody (Merck) before analysis on a flow cytometer (BD).
CD44v6 gene expression was knocked down using CD44v6 small interfering RNAs (siRNAs) as previously described. Two CD44v6-specific siRNAs (v6-1: 5ʹ-AGU ACA ACG GAA ATT-3ʹ and v6-2: 5ʹ-GGA UAU CGC CAAACA CCC ATT-3ʹ) were synthesized by Bioneer (Daejeon, Korea). Control siRNA (5ʹ-CUA CGC CAA UUU CGU (dTdT)-3ʹ) were purchased from Bioneer. […]

[3] = system: CD44v6-high cells (MDA-MB231, 4T1, Panc-1) versus CD44v6-low MCF7 cells; test: Immunofluorescence microscopy and flow cytometry of FITC-peptide cell binding; type: cell-based; conditions: FITC-labeled peptide 25 µM, 4 °C, 1 h
Procedure: Cells were seeded in each well of an 8-well chamber slide at a density of 1 × 10^5 cells per well, incubated overnight, and then treated with 1% BSA at room temperature for 1 h. Subsequently, the cells were incubated with FITC-conjugated peptides (25 µM) at 4 °C for 1 h, blocked with BSA, fixed, and incubated with an anti-human CD44v6 mouse monoclonal antibody (clone no. VFF-7, 1:100 dilution; Santa Cruz Biotechnology, Dallas, TX) or a rabbit anti-CD44v6 polyclonal antibody (1:100 dilution; Merck). The cells were then incubated with an Alexa Fluor 594-labeled goat anti-mouse IgG or goat anti-rabbit IgG secondary antibodies (Merck). After incubation, the cells were counterstained with 4ʹ,6-diamidino-2-phenylindole (DAPI, Sigma-Aldrich, St. Louis, MI), mounted with ProLong antifade reagent (Thermo Fischer Scientific), and observed under a confocal microscope (Zeiss, Jena, Germany).
Cells (1 × 10^5 cells) were harvested and suspended in culture medium containing 1% BSA for 1 h, followed by an incubation with FITC-labeled peptides (25 µM) at 4 °C for 1 h. After washing, the cells were analyzed using a FACSCalibur flow cytometer (BD, Franklin Lakes, NJ). […]

MDA-MB231 cells [4] = test: Saturation cell binding assay, MDA-MB231; parameters: species or system human; conditions: biotin-labeled peptide 0-256 µM, 4 °C, 1 h
Procedure: Supplementary Information
Supplementary Materials and Methods
Saturation binding assays to determine the cellular binding affinities of peptides Cells (5 × 10^3 cells per well in a 96-well plate) were incubated with 1% bovine serum albumin (BSA) for 30 min and with different concentrations of biotin-labeled peptides (0, 2, 4, 8, 16, 32, 64, 128, and 256 µM) at 4 °C for 1 h. After washing, the cells were incubated with horseradish peroxidase-conjugated neutravidin (1:10,000 dilution; ThermoFisher Scientific, Waltham, MA) for 30 min at room temperature. Enzymatic activity was detected using a 3,3ʹ,5,5ʹ-tetramethylbenzidine substrate (ThermoFisher Scientific), and the reaction was stopped using 2 M sulfuric acid. The absorbance at 450 nm was measured in each well using a microplate reader (Tecan, Mannedorf, Switzerland). The KD values were then calculated using GraphPad Prism 6 software (GraphPad Inc., La Jolla, CA). […]
10 µM biotin-labeled CD44v6-binding peptides at 4 °C for 1 h. […]
Scientific) for 30 min at room temperature. […]

Row | SMILES | HGF-induced cell migration and invasion, MDA-MB231 (MDA-MB231 cells [1]) | decrease of cellular binding to CD44v6-knockdown cells compared with wild-type cells [2] | cellular binding, CD44v6-high versus CD44v6-low cells [3] | Kd (MDA-MB231 cells [4]) [µM]
1 | CC(C)C[C@H](NC(=O)[C@H](CCC(N)=O)NC(=O)[C@H](Cc1c[nH]c2ccccc12)NC(=O)[C@H](CCC(=O)O)NC(=O)[C@H](CC(N)=O)NC(=O)[C@@H](N)CS)C(=O)N[C@@H](CCCCN)C(=O)N[C@@H](CO)C(=O)N[C@@H](CS)C(=O)O [NEW] (H-CNEWQLKSC-OH; N-terminus and C-terminus assumed) | inhibited | 6-7 fold | bound selectively to CD44v6-high cells | 18 ± 6
2 | CC[C@H](C)[C@H](NC(=O)[C@@H](NC(=O)[C@H](CC(N)=O)NC(=O)[C@H](CC(C)C)NC(=O)[C@H](CC(N)=O)NC(=O)[C@@H](N)CS)[C@@H](C)O)C(=O)N[C@@H](CC(=O)O)C(=O)N[C@H](C(=O)N[C@@H](CS)C(=O)O)[C@@H](C)O [NLN] (H-CNLNTIDTC-OH; N-terminus and C-terminus assumed) | inhibited | 6-7 fold | bound selectively to CD44v6-high cells | 12 ± 5

From publication PMC7738880, “Identification of novel CD44v6-binding peptides that block CD44v6 and deliver a pro-apoptotic peptide to tumors to inhibit tumor growth and metastasis in mice” (Theranostics, 2021)
